The source made the active and inactive calls. The calls are words filed in the database; no cut-off is given here. Non-standard residues stand in square brackets, D forms with d. Residues, ends and D or L forms follow the SMILES beside them. *: point of attachment. Dolaproine = CO[C@@H]([C@@H]1CCCN1)[C@@H](C)C(=O)O; Dil = CC[C@H](C)[C@H](NC)[C@@H](CC(=O)O)OC; X1 = C[C@@H](N*)[C@@H](O)c1ccccc1; NMeV = CN[C@H](C(=O)O)C(C)C
What was measured:
[1] = tested on: Lewis lung carcinoma cell line; assay: Antitumor activity against mouse LLC cells allografted in C57/BL6 mouse assessed as reduction in tumor weight at 0.5 mg/kg, iv administered on day 7, 11 and 14 post transplantation measured on day 20 relative to control; assay type: functional
Cancer cell lines = assay: Cytotoxicity against human non-small cell lung cancer cells at 0.5 to 1 nM after 4 days by XTT assay; assay type: functional, cell-based
Mus musculus = assay: Toxicity in mouse LLC cells allografted C57/BL6 mouse model assessed as change in body weight at 0.5 mg/kg, iv administered on day 7, 11 and 14 post transplantation measured on day 20; assay type: organism-based; parameters: dose 0.5 mg/kg, route intravenous; conditions: in vivo
MDA-MB-231 [2] = assay: Ratio of IC50 for human MDA-MB-231 cells to IC50 for human MDA-MB-231 cells in presence of Escherichia coli beta-glucuronidase; assay type: functional
KB [3] = assay: Ratio of IC50 for human KB cells to IC50 for human KB cells in presence of Escherichia coli beta-glucuronidase; assay type: functional
A549 [4] = assay: Ratio of IC50 for human A549 cells to IC50 for human A549 cells in presence of Escherichia coli beta-glucuronidase; assay type: functional
[5] = Prodrug conversion in phosphate buffer at pH 7 assessed as MMAE and 4-hydroxy-3-nitrobenzyl alcohol formation after 40 mins by HPLC method in presence of Escherichia coli beta-glucuronidase; assay type: physicochemical; conditions: pH 7, 40 min
Serum = assay: Stability in bovine serum at 0.5 mg after 48 hrs by HPLC method; assay type: ADME, cell-free, Bos taurus; conditions: cattle
MDA-MB-231 [6] = assay: Antiproliferative activity against human MDA-MB-231 cells after 4 days by XTT assay in presence of Escherichia coli beta-glucuronidase; assay type: functional, cell-based; conditions: MDA-MB-231, 96 h
KB [7] = assay: Antiproliferative activity against human KB cells after 4 days by XTT assay in presence of Escherichia coli beta-glucuronidase; assay type: functional, cell-based; conditions: 96 h
A549 [8] = assay: Antiproliferative activity against human A549 cells after 4 days by XTT assay in presence of Escherichia coli beta-glucuronidase; assay type: functional, cell-based; conditions: A549, 96 h
MDA-MB-231 [9] = assay: Antiproliferative activity against human MDA-MB-231 cells after 4 days by XTT assay; assay type: functional, cell-based; conditions: MDA-MB-231, 96 h
KB [10] = assay: Antiproliferative activity against human KB cells after 4 days by XTT assay; assay type: functional, cell-based; conditions: 96 h
A549 [11] = assay: Antiproliferative activity against human A549 cells after 4 days by XTT assay; assay type: functional, cell-based; conditions: A549, 96 h
[12] = Cytotoxicity against human non-small cell lung cancer cells at 1 nM after 4 days by XTT assay in presence of Escherichia coli beta-glucuronidase; assay type: functional, Cancer cell lines
[13] = tested on: Lewis lung carcinoma cell line; assay: Antitumor activity against mouse LLC cells allografted in C57/BL6 mouse assessed as reduction in tumor weight at 0.1 mg/kg, iv administered on day 7, 11 and 14 post transplantation measured on day 20 relative to control; assay type: functional

Drug metabolism [5] | Stability (Serum) | IC50 (MDA-MB-231 [6]) [nM] | IC50 (KB [7]) [nM] | IC50 (A549 [8]) [nM] | SMILES | fold change (FC) [1] | Activity (Cancer cell lines) | Activity (Mus musculus) | Ratio IC50 (MDA-MB-231 [2]) | Ratio IC50 (KB [3]) | Ratio IC50 (A549 [4]) | IC50 (MDA-MB-231 [9]) [nM] | IC50 (KB [10]) [nM] | IC50 (A549 [11]) [nM] | Activity [12] [%] | fold change (FC) [13]
Active | Stable | 0.22 | 0.16 | 0.52 | CC[C@H](C)[C@@H]([C@@H](CC(=O)N1CCC[C@H]1[C@H](OC)[C@@H](C)C(=O)N[C@H](C)[C@@H](O)c1ccccc1)OC)N(C)C(=O)[C@@H](NC(=O)[C@H](C(C)C)N(C)C(=O)OCc1ccc(O[C@@H]2O[C@H](C(=O)O)[C@@H](O)[C@H](O)[C@H]2O)c([N+](=O)[O-])c1)C(C)C | 1.5 | inactive | Non-toxic | 40 | 40 | 40 | 20.9 | 20.8 | 23.7 | 75 | 
 |  |  |  |  | CC[C@H](C)[C@@H]([C@@H](CC(=O)N1CCC[C@H]1[C@H](OC)[C@@H](C)C(=O)N[C@H](C)[C@@H](O)c1ccccc1)OC)N(C)C(=O)[C@@H](NC(=O)[C@@H](NC)C(C)C)C(C)C (H-[NMeV]V[Dil][Dolaproine]-X1) |  | Active |  |  |  |  | 0.25 | 0.19 | 0.59 |  | 1.5

From ChEMBL document CHEMBL2417433, “Synthesis and biological evaluations of a monomethylauristatin E glucuronide prodrug for selective cancer chemotherapy” (Eur J Med Chem, 2013)
